Patent US12590100B2, “Tetrahydro-spiroindoline-pyrrolopyrrole-triones inhibitors of the NRF2-β-TrCP interaction for use in the treatment of fatty liver disease” (Universidad Autonoma De Madrid, priority 2021, dated 2026)

Key:
NRF2 = NRF2 and HO-1 protein levels in MEFs (immunoblot); assay type: cell-based, mouse
Description: (§1) FIG. 4. […] MEFs in serum-depleted conditions were subjected to (A-C) 1 μM, 3 μM, or 10 μM of PHAR and 10 μM of SFN as a positive control for 16 h; or (D-F) 10 μM of PHAR for the indicated times. In both experiments, 0.1% DMSO was used as a vehicle. A), representative immunoblots of NRF2, HO1, KEAP1, LAMINB, and GAPDH as loading controls. B) and C), densitometric analysis of NRF2 and HO1 protein levels of the representative immunoblots depicted in (A), expressed as a ratio of NRF2/LAMINB or HO1/GAPDH. The data is depicted as means±SEM (n=3). Statistical analysis was performed with one-way ANOVA followed by the Bonferroni test to check inter-group differences. *p<0.05; ***p<0.001 vs. 0. D), representative immunoblots of NRF2, HO1, KEAP1, LAMINB, and GAPDH as loading controls. E) and F), Densitometric analysis of NRF2 and HO1 protein levels of the representative immunoblots of (D), expressed as a ratio of NRF2/LAMINB or HO1/GAPDH. The data is depicted as means±SEM (n=3). Statistical analysis was performed with one-way ANOVA followed by the Bonferroni test to check inter-group differences. *p<0.05; ***p<0.001 vs. 0. G), Reporter MCF-7 c32 ARE-luc cells were subjected to 1 μM, 3 μM, or 9 μM of PHAR and 10 μM of SFN as a positive control. 0.1% DMSO was used as a vehicle. Luciferase activity was measured after 16 h of treatment. The data is depicted as means±SEM (n=3). Statistical analysis was performed with one-way ANOVA followed by the Bonferroni test to check inter-group differences. **p<0.01; ***p<0.001 vs. 0. H), MTT assay to evaluate cell viability/toxicity after treatments. I), Serum-deprived MEFs were subjected to 10 μM of PHAR. The mRNA levels of Hmox1, Nqo1, Aox1, Glc, and Gclm after 8 h of treatment were determined by means of pRT-PCR and normalized by means of average LaminB, Gapdh, and β-actin. The data is depicted as means±SEM (n=3). Statistical analysis was performed with the Student's T test. *p<0.05; **p<0.01 ***p<0.001 vs. 0.
In order to empirically determine if PHAR activates NRF2, mouse embryo fibroblasts (MEFs) were treated with several doses of the compound (1 μM, 3 μM, and […]) for 16 h and with 10 μM of sulforaphane (SFN), one of main electrophilic activators of NRF2, used as a positive control.
Moreover, a time course of NRF2 activation with PHAR (10 μM for 2, 4, and 8 h) or with SFN (10 μM, 8 h) was done as a positive control.

[1] = system: transcriptional activity of NRF2; experiment: ARE luciferase reporter assay in MCF-7 c32 ARE-LUC cells; assay type: cell-based; settings: 9 μM, 16 h
Description: as §1, with “G), Reporter MCF-7 c32 ARE-luc cells were subjected to 1 μM, 3 μM, or 9 μM of PHAR and 10 μM of SFN as a positive control. 0.1% DMSO was used as a vehicle.” left out, “The data is depicted as means±SEM (n=3). Statistical analysis was performed with one-way ANOVA followed by the Bonferroni test to check inter-group differences. **p<0.01; ***p<0.001 vs. 0. H), MTT assay to evaluate cell viability/toxicity after treatments. I), Serum-deprived MEFs were subjected to 10 μM of PHAR.” left out, “The data is depicted as means±SEM (n=3). Statistical analysis was performed with the Student's T test. *p<0.05; **p<0.01 ***p<0.001 vs. 0.” left out

cell viability = experiment: MTT assay of cell viability/toxicity; assay type: cell-based; settings: all doses used
β-TrCP-NRF2 interaction = experiment: NRF2 levels after LY294002 (PI3K inhibition, GSK-3β activation) in Keap1−/− MEFs; assay type: cell-based, mouse; settings: PHAR 10 μM 1 h, then LY294002 20 μM 15-240 min
[2] = HPLC-MS detection of PHAR in liver after IP injection; assay type: in vivo, mouse; settings: mice, single IP 50 mg/kg, 120 min
Description: FIG. 9. PHAR activates NRF2 and HO-1 in liver. A), UV and MS spectrum derived from the HPLC-MS analysis of PHAR dissolved in methanol for the identification of peaks associated with the compound. A blue rectangle surrounds the mass associated with PHAR. (B-D), the mice were treated with the vehicle (Tween-80+PBS, 1:13), 50 mg/kg of PHAR, or 50 mg/kg of SFN (saline) as a positive control by means of intraperitoneal (IP) injection for 2 hours. B), HPLC-MS UV and MS spectra derived from representative liver samples of both experimental groups used for determining PHAR levels in the liver 120 min after a single IP injection of 50 mg/kg. A blue rectangle surrounds the mass associated with PHAR. C), representative immunoblots showing NRF2, HO1, and LAMINB protein levels as the liver extract loading control. D), densitometric analysis of NRF2 protein levels of the representative immunoblots shown in (C), expressed as a ratio of NRF2/LAMINB. Statistical analysis was performed with one-way ANOVA followed by the Bonferroni test to compare inter-group differences. ***p<0.001 vs. vehicle. […] F), densitometric analysis of NRF2 and HO1 protein levels in the liver tissue of the representative immunoblots shown in (E), expressed as a ratio of NRF2/LAMINB or HO1/LAMINB levels. […]
Once the mechanism of action of PHAR was deciphered, the capacity thereof to induce NRF2 levels in a murine model was evaluated. […]

In the case of O=C1[C@@H]2[C@H](Cc3c[nH]c4ccccc34)N[C@]3(C(=O)Nc4ccc(Cl)cc43)[C@@H]2C(=O)N1c1ccc2c(c1)OCCO2 [PHAR], the HO-1 levels (NRF2; 16 h, PHAR 1, 3, 9 μM) is reported as “increase, mainly with the dose of 9 μM”, the NRF2 accumulation (NRF2; 16 h, PHAR 1, 3, 9 μM, SFN 10 μM) is reported as “induced NRF2 accumulation, although to a slightly lesser extent than the accumulation induced by SFN” and the “NRF2 accumulation, time course” value (NRF2; PHAR 10 μM for 2, 4, 8 h, SFN 10 μM, 8 h) is reported as “induced NRF2 accumulation 2 h after treatment”. For the same molecule, the “HO-1 levels, time course” value (NRF2; PHAR 10 μM, 8 h) was “increase in HO-1 levels after 8 h”, the “increase in luciferase activity” value [1] was ~4 fold and the “toxicity (cell viability, MTT)” value (cell viability) was “does not present toxicity at any of the doses used”. For the same molecule, the “NRF2 levels under LY294002 after PHAR pre-treatment” value (β-TrCP-NRF2 interaction) was “prevented LY294002-induced NRF2 degradation, but furthermore favored NRF2 accumulation” and the “presence of PHAR in liver tissue (HPLC-MS)” value [2] was “corresponded with the presence of the compound”.
